Reference: patent US10994010B2, “Selective targeting of the CD40L/Mac-1 interaction by small peptide inhibitors and its use for the treatment of inflammation and atherogenesis” (Universitaetsklinikum Freiburg, priority 2010, dated 2021)
Positions of bridges follow the written chain, without caps; N, C: chain ends. Residues, ends and D or L forms follow the SMILES beside them.

What was measured:
C57BL/6J mice [1] = experiment: Tail bleeding time; settings: mouse, in vivo
Method: (§1) Potential side effects were checked in an in vivo thrombosis model. 3-4 weeks old C57BL/6J mice received an intraperitoneal injection of either sterile saline (100 μl), the peptides cM7, scM7, or the indicated antibodies. A mesenteric arteriole was chosen and injured with ferrichloride. Platelets were stained by retroorbital injection of rhodamine […] and visualized through an intravital microscope (AxioScope Vario, Carl Zeiss). Vessel occlusion time and thrombus embolization rate was analyzed. Tail bleeding time was determined as previously reported (Andre et al., Loc. Cit.).

peritoneal macrophages = experiment: Apoptosis and necrosis of thioglycollate-recruited peritoneal macrophages in vivo (annexin V, propidium iodide); settings: intraperitoneal injection, after 4 hours
Method: (§2) (FIG. 6A, FIG. 6B) Macrophages recruited to the peritoneal cavity by thioglycollate where challenged by intraperitoneal injections of either cM7, scM7 or the blocking anti-Mac-1 antibody M1/70. […] (FIG. 4C, FIG. 4D) In vitro cultivated human umbilical vein endothelial cells (HUVECs) were incubated with cM7, scM7 or a combination of CD40L or a blocking anti-CD40 antibody. […] Data are presented as mean±SEM of at least 3 independent experiments.

C57BL/6J mice [2] = experiment: In vivo thrombosis model (ferrichloride injury of mesenteric arteriole)
Method: as §1

[3] = system: human umbilical vein endothelial cells (HUVECs); experiment: Cytotoxicity and apoptosis in cultivated HUVECs (caspase 3/7 activity, LDH release); type: cell-based
Method: as §2

TNFα-challenged mice = settings: mouse, in vivo
Method: Mice received an intraperitoneal injection 5 hours before surgery of 200 ng of murine TNFα (R&D systems) and 100 μg of peptides dissolved in sterile saline 5 hours before surgery. Mice were anesthetized with an intraperitoneal injection of ketamine hydrochloride (Essex) and xylazin (Bayer) at a dose at 187.5 mg/kg of body weight and 62.5 mg/kg of body weight, respectively. The cremaster muscle was exteriorized as described previously (Iezzi et al., PNAS (2009), pp 876-881). For some experiments a catheter was placed in the jugular vein and peptides were administered during microscopy. The cremaster was superfused with thermo-controlled (36° C.) saline. Mice were placed on a heating pad to maintain body temperature. Videos were taken with an intravital microscope (AxioScope Vario, Carl Zeiss) fitted with a saline immersion objective (WPlan-APOCHROMAT 20x/1,0DIC IR, Carl Zeiss) a high sensitivity camera system (AxioCam MRm, Carl Zeiss) for 30 seconds each. Rolling leukocyte flux was defined as the number of leukocytes moving at a velocity less than erythrocytes. Leukocyte rolling velocity was measured by the average time required for leukocytes to roll over a defined length of the venule at each time point. Adherent leukocytes were defined as cells that remained stationary for at least 30 s. Rolling leukocyte flux, adhering flux were quantified by a blinded investigator.

LDLr−/− mice = experiment: Atherogenesis study, high-cholesterol diet 20 weeks; type: in vivo
Method: Atherogenesis study. Eight-week-old male LDL-receptor-deficient (LDLr^−/−) mice (Jackson Laboratories) consuming a high-cholesterol diet (HCD) were treated with intraperitoneal injections of the peptides cM7, scM7 (Peptide Specialty Laboratory) in a dose of 100 μg, or sterile saline three times a week. After 20 weeks blood samples were taken for flow cytometric analysis of leukocyte subpopulations, cholesterol and triglyceride plasma levels, as well as for the determination of plasma cytokines and chemokines. Blood pressure was determined by a non-invasive blood pressure measurement (NIBP, Harvard Apparatus). Mice were euthanized, and aortic roots and arches were frozen in OCT (OCT compound; Tissue-Tek). Thoracic and abdominal aortas were fixed in 10% buffered formalin. Serial cryostat sections (6 μm) of mouse aortic tissues were fixed in acetone, and air-dried. Nonspecific binding was blocked with 5% species-appropriate normal serum (Vector Laboratories). Sections were then incubated with primary antibodies diluted in phosphate-buffered saline, supplemented with 5% species-appropriate normal serum. Incubation with secondary antibodies was followed by avidin-biotin complex (ABC, Vector Laboratories). Antibody binding was visualized with 3-amino-9-ethylcarbazole (AEC; Dako), followed by counterstaining with Gill's hematoxylin solution (Sigma-Aldrich). Control stainings included staining with the respective IgG isotypes (Pharmingen, Dako). Antibodies used were rat anti-mouse Mac-3 for macrophage specific staining, anti α-actin for smooth muscle cell specific staining (Dako). For the visualization of Type I Collagen, Formalin-fixed frozen sections were incubated for 4 hours in a freshly prepared 0.1% solution of picrosirius red (Polysciences) in saturated aqueous picric acid. After rinsing in 0.01 N HCl and distilled water, sections were dehydrated in 70% ethanol and mounted in Permount (Vector Laboratories). Picrosirius red staining was analyzed by polarization microscopy. As the color of collagen fibers assessed in the picrosirius red staining depends on the thickness of collagen fibers and changes from green (thin fibers) to yellow, orange, and red (thick fibers), color distribution in stained collagen sections was quantified. Deposition of lipids was determined by oil red O staining after formalin fixation in aortic sections or in en face preparations of the abdominal aorta. To quantify the composition of the aortic lesions, sections of the aortic tissue were analyzed microscopically in all mice. Within the aortic root, lesion areas were analyzed in cross-sections obtained at the level of all 3 leaflets of the aortic valve, immediately proximal to the right coronary artery ostium. The total aortic wall area, lesion area in the aortic root, and the percentage of area stained for macrophages, lipids, SMCs, or collagen were determined via computer-assisted image quantification (ImagePro, Media Cybernetics).

SMILES: CC(C)C[C@@H]1NC(=O)[C@H](CCC(N)=O)NC(=O)[C@H](CCC(=O)O)NC(=O)[C@@H](N)CSSC[C@@H](C(=O)O)NC(=O)[C@H](CC(C)C)NC(=O)[C@H]([C@@H](C)O)NC(=O)[C@H](CCCCN)NC(=O)[C@H](CO)NC(=O)[C@H](CCCCN)NC(=O)[C@H](CCCCN)NC1=O [cM7] (H-CEQLKKSKTLC-OH; disulfide 1-11 (inferred); N-terminus and C-terminus assumed)
- effect on bleeding time (C57BL/6J mice [1]): did not affect bleeding time
- apoptotic or necrotic cells in vivo (annexin V binding, propidium iodide loading) (peritoneal macrophages): did not cause an increase of apoptotic or necrotic cells in vivo
- effect on vessel occlusion time (C57BL/6J mice [2]; model of arterial thrombosis): did not prolong vessel occlusion time
- effect on thromboembolization rate (C57BL/6J mice [2]; mouse, in vivo): only caused a slight increase in thromboembolization rate
- apoptosis of endothelial cells, LDH-release ([3]; CD40L primed HUVECs): slightly increased in CD40L primed HUVECs
- cellular cytotoxicity, caspase 3/7-activity ([3]; HUVECs, 24 hours): did not induce cellular cytotoxicity
- Heart rate (TNFα-challenged mice): 628 ± 63 bpm
- Leukocytes (TNFα-challenged mice): 11.9 ± 2.3 ×1000/μl
- Platelets (TNFα-challenged mice): 552 ± 174 ×1000/μl
- Systolic blood pressure (TNFα-challenged mice): 97.6 ± 6.5 mmHg
- Leukocytes (LDLr−/− mice; AF): 4.54 ± 1.28 ×1000/μl
- Platelets (LDLr−/− mice; AF): 486 ± 198 ×1000/μl
- Weight (LDLr−/− mice; AF: after feeding): 35.7 ± 3.8 g
- Leukocytes (LDLr−/− mice; BF): 11.2 ± 3.1 ×1000/μl
- Platelets (LDLr−/− mice; BF): 529 ± 53 ×1000/μl
- Weight (LDLr−/− mice; BF: before feeding): 23.4 ± 2.3 g
- immunologic characteristics (T cells, B cells, cytokines) (LDLr−/− mice; long-term treatment): Any changes in immunologic characteristics were not observed
